Test results reported in patent publication US10336762B2 (priority 2017, dated 2019).
Read-outs that look alike come from different tables or passages of the source.

What was measured:
[1] = system: TNFα; assay: cells; type: cell-based, human; conditions: LPS-stimulated human monocytes, read-out: EC50 TNF
[2] = target: IRAK4 enzyme (Homo sapiens (Human), UniProt Q9NWZ3); assay: biochemical; type: biochemical; conditions: IRAK4 enzyme, 500 μM ATP
[3] = Homo sapiens, Monocyte, TNFα content
[4] = Homo sapiens, Monocyte, TNFα by TR-FRET

IRAK4 enzyme, sequence (Q9NWZ3 whole entry): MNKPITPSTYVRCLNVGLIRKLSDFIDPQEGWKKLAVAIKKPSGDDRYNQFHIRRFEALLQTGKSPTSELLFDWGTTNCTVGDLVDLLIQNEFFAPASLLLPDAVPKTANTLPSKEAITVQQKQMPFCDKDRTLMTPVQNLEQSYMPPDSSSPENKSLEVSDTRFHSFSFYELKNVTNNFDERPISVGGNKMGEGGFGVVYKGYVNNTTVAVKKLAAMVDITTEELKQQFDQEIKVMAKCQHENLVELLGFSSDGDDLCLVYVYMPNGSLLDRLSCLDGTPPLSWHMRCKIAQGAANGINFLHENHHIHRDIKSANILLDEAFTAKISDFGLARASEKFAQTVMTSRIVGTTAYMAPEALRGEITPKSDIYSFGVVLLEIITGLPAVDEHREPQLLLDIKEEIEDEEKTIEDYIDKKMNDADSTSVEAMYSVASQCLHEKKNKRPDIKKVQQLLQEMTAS

| SMILES | EC50 [1, 3] [µM] | IC50 ([2]; TR-FRET (HTRF)) [µM] | IC50 ([2]; TR-FRET) [µM] | EC50 [1, 4] [µM] | EC50 ([1]; TNFα content) [µM] |
| --- | --- | --- | --- | --- | --- |
| CNC(=O)c1cnc(-c2ccc3cc(C#N)cnn23)cc1NC12CCC(NC(C)=O)(CC1)CC2 [Example 482, 4-((4-acetamido-bicyclo[2.2.2]octan-1-yl)amino)-6-(3-cyano-pyrrolo[1,2-b]pyridazin-7-yl)-N-methylnicotinamide] | 0.048 | 0.001 | – | – | – |
| CC(C)(O)[C@H](F)CNC(=O)c1cnc(-c2ccc3cc(C#N)cnn23)cc1Nc1ccc(N2CCOCC2)nc1 [Example 673, (R)-6-(3-cyanopyrrolo[1,2-b]pyridazin-7-yl)-N-(2-fluoro-3-hydroxy-3-methyl-butyl)-4-((6-morpholino-pyridin-3-yl)amino) nicotinamide] | 0.019 | < 0.001 | – | – | – |
| CC(C)(O)[C@H](F)CNC(=O)c1cnc(-c2ccc3cc(C#N)cnn23)cc1Nc1cn[nH]c1 [Example 70, (R)-4-((1H-pyrazol-4-yl)amino)-6-(3-cyano-pyrrolo[1,2-b]pyridazin-7-yl)-N-(2-fluoro-3-hydroxy-3-methylbutyl)nicotinamide] | 0.047 | – | < 0.001 | – | – |
| CC(=O)NC1CCC(NC(=O)c2cnc(-c3ccc4cc(C#N)cnn34)cc2N[C@H]2CC[C@H](NC(C)=O)CC2)CC1 (stereo partly drawn) [Example 301, N-((1s,4S)-4-acetamidocyclohexyl)-4-(((1r,4R)-4-acetamidocyclohexyl)amino)-6-(3-cyanopyrrolo[1,2-b]pyridazin-7-yl)nicotinamide] | 1.41 | – | 0.002 | – | – |
| CC(C)(O)[C@H](F)CNC(=O)c1cnc(-c2ccc3cc(C#N)cnn23)cc1N [Example 11, (R)-4-amino-6-(3-cyanopyrrolo[1,2-b]pyridazin-7-yl)-N-(2-fluoro-3-hydroxy-3-methylbutyl)nicotinamide] | 1.04 | – | 0.007 | – | – |
| CCOc1cc(Nc2cc(-c3ccc4cc(C#N)cnn34)ncc2C(=O)NC[C@@H](F)C(C)(C)O)ccn1 [Example 847, (R)-6-(3-cyanopyrrolo[1,2-b]pyridazin-7-yl)-4-((2-ethoxypyridin-4-yl)amino)-N-(2-fluoro-3-hydroxy-3-methylbutyl)nicotinamide] | – | – | < 0.001 | 0.069 | – |
| CC(C)(O)[C@H](F)CNC(=O)c1cnc(-c2ccc3cc(C#N)cnn23)cc1Nc1ccc(CC#N)nc1 [Example 678, (R)-4-((6-(cyanomethyl)pyridin-3-yl)amino)-6-(3-cyanopyrrolo[1,2-b]pyridazin-7-yl)-N-(2-fluoro-3-hydroxy-3-methylbutyl)nicotinamide] | 0.009 | < 0.001 | – | – | – |
| CNC(=O)c1cnc(-c2ccc3cc(C#N)cnn23)cc1NC12CCC(NC(=O)OC)(CC1)CC2 [Example 486, methyl (4-((2-(3-cyano-pyrrolo[1,2-b]pyridazin-7-yl)-5-(methylcarbamoyl)pyridin-4-yl)amino)bicyclo[2.2.2]octan-1-yl)carbamate] | 0.064 | 0.001 | – | – | – |
| CN(C)C(=O)NC12CCC(Nc3cc(-c4ccc5cc(C#N)cnn45)ncc3C(=O)NC[C@@H](F)C(C)(C)O)(CC1)CC2 [Example 272, (R)-6-(3-cyanopyrrolo[1,2-b]pyridazin-7-yl)-4-((4-(3,3-dimethylureido)bicyclo[2.2.2]octan-1-yl)amino)-N-(2-fluoro-3-hydroxy-3-methylbutyl)nicotinamide] | 0.023 | – | 0.001 | – | – |
| COC(=O)N1CC[C@H]1CNc1cc(-c2ccc3cc(C#N)cnn23)ncc1C(=O)NC[C@@H](F)C(C)(C)O [Example 890, (S)-methyl 2-(((2-(3-cyanopyrrolo[1,2-b]pyridazin-7-yl)-5-(((R)-2-fluoro-3-hydroxy-3-methylbutyl)carbamoyl)pyridin-4-yl)amino)methyl)azetidine-1-carboxylate] | – | – | 0.014 | 0.357 | – |
| CC(C)(O)[C@H](F)CNC(=O)c1cnc(-c2ccc3cc(C#N)cnn23)cc1Nc1ccc(-c2ncco2)cc1 [Example 228, (R)-6-(3-cyanopyrrolo[1,2-b]pyridazin-7-yl)-N-(2-fluoro-3-hydroxy-3-methylbutyl)-4-((4-(oxazol-2-yl)phenyl)amino) nicotinamide] | 0.114 | – | 0.002 | – | – |
| CC(C)(O)[C@H](F)CNC(=O)c1cnc(-c2ccc3cc(C#N)cnn23)cc1Nc1ccc2nncn2c1 [Example 973, (R)-4-([1,2,4]triazolo[4,3-a]pyridin-6-ylamino)-6-(3-cyanopyrrolo[1,2-b]pyridazin-7-yl)-N-(2-fluoro-3-hydroxy-3-methylbutyl)nicotinamide] | – | – | 0.002 | 1.91 | – |
| CC(C)Nc1cc(-c2ccc3cc(C(N)=O)cnn23)ncc1C(=O)NC1CS(=O)(=O)C1 [Example 78, 7-(5-((1,1-dioxidothietan-3-yl)carbamoyl)-4-(isopropyl-amino)pyridin-2-yl)pyrrolo[1,2-b] pyridazine-3-carboxamide] | 1.62 | – | 0.027 | – | – |
| C[C@@H](O)C(=O)N1CCC(Nc2cc(-c3ccc4cc(C#N)cnn34)ncc2C(=O)NC[C@@H](F)C(C)(C)O)CC1 [Example 324, 6-(3-cyanopyrrolo[1,2-b]pyridazin-7-yl)-N-((R)-2-fluoro-3-hydroxy-3-methylbutyl)-4-((1-((R)-2-hydroxy-propanoyl)piperidin-4-yl)amino)nicotinamide] | 0.157 | – | 0.002 | – | – |
| CC(C)(O)[C@H](F)CNC(=O)c1cnc(-c2ccc3cc(C#N)cnn23)cc1NC1CCC(C)(N2CCOCC2)CC1 (single isomer, unassigned) [Example 691] | – | 0.005 | – | – | 0.345 |
| CC(C)(O)[C@H](F)CNC(=O)c1cnc(-c2ccc3cc(C#N)cnn23)cc1NS(C)(=O)=O [Example 10, (R)-6-(3-cyanopyrrolo[1,2-b]pyridazin-7-yl)-N-(2-fluoro-3-hydroxy-3-methylbutyl)-4-(methylsulfonamido)nicotinamide] | > 10 | – | 0.234 | – | – |
| CC(C)(O)[C@H](F)CNC(=O)c1cnc(-c2ccc3cc(C#N)cnn23)cc1N[C@H]1CC[C@H](NC(=O)C(F)(F)F)CC1 [Example 313, 6-(3-cyanopyrrolo[1,2-b]pyridazin-7-yl)-N-((R)-2-fluoro-3-hydroxy-3-methylbutyl)-4-(((1r,4R)-4-(2,2,2-trifluoroacetamido)cyclohexyl)amino) nicotinamide] | 0.037 | – | 0.001 | – | – |
| CN(C)C(=O)OC12CCC(Nc3cc(-c4ccc5cc(C#N)cnn45)ncc3C(=O)NC[C@@H](F)C(C)(C)O)(CC1)CC2 [Example 411, (R)-4-((2-(3-cyano-pyrrolo[1,2-b]pyridazin-7-yl)-5-((2-fluoro-3-hydroxy-3-methylbutyl)carbamoyl)pyridin-4-yl)amino)bicyclo[2.2.2] octan-1-yl dimethylcarbamate] | 0.062 | 0.002 | – | – | – |
| CNC(=O)O[C@H]1C[C@@H](Nc2cc(-c3ccc4cc(C#N)cnn34)ncc2C(=O)NC[C@@H](F)C(C)(C)O)C1 [Example 351, (1S,3S)-3-((2-(3-cyanopyrrolo[1,2-b]pyridazin-7-yl)-5-(((R)-2-fluoro-3-hydroxy-3-methylbutyl)carbamoyl)pyridin-4-yl)amino)cyclobutyl methylcarbamate] | 0.12 | – | 0.002 | – | – |
| CC(C)Nc1cc(-c2ccc3cc(C#N)cnn23)ncc1C(=O)NCCC1(O)CCOCC1 [Example 95, 6-(3-cyanopyrrolo[1,2-b]pyridazin-7-yl)-N-(2-(4-hydroxytetrahydro-2H-pyran-4-yl)ethyl)-4-(isopropylamino) nicotinamide] | 0.042 | – | 0.001 | – | – |
| CC(C)Nc1cc(-c2ccc3cc(C#N)cnn23)ncc1C(=O)NCC#N [Example 462, N-(cyanomethyl)-6-(3-cyanopyrrolo[1,2-b]pyridazin-7-yl)-4-(isopropylamino) nicotinamide] | 0.067 | < 0.001 | – | – | – |
| CC(C)Nc1cc(-c2ccc3cc(C#N)cnn23)ncc1C(=O)NCCS(C)(=O)=O [Example 92, 6-(3-cyanopyrrolo[1,2-b]pyridazin-7-yl)-4-(isopropylamino)-N-(2-(methylsulfonyl)ethyl) nicotinamide] | 0.08 | – | 0.002 | – | – |
| CC(C)Nc1cc(-c2ccc3cc(C#N)cnn23)ncc1C(=O)N[C@H]1CCOC1 [Example 36, (S)-6-(3-cyanopyrrolo[1,2-b]pyridazin-7-yl)-4-(isopropylamino)-N-(tetrahydrofuran-3-yl) nicotinamide] | 0.221 | – | 0.015 | – | – |
| Cn1cc(Nc2cc(-c3ccc4cc(C#N)cnn34)ncc2C(=O)NC[C@@H](F)C(C)(C)O)cn1 [Example 47, (R)-6-(3-cyanopyrrolo[1,2-b]pyridazin-7-yl)-N-(2-fluoro-3-hydroxy-3-methylbutyl)-4-((1-methyl-1H-pyrazol-4-yl)amino)nicotinamide] | 0.037 | – | < 0.001 | – | – |
| CC(C)(O)[C@H](F)CNC(=O)c1cnc(-c2ccc3cc(C#N)cnn23)cc1Nc1ccc2c(N)n[nH]c2c1 [Example 647, (R)-4-((3-amino-1H-indazol-6-yl)amino)-6-(3-cyanopyrrolo[1,2-b]pyridazin-7-yl)-N-(2-fluoro-3-hydroxy-3-methyl-butyl)nicotinamide] | 0.048 | < 0.001 | – | – | – |
| CCOc1cncc(Nc2cc(-c3ccc4cc(C#N)cnn34)ncc2C(=O)NC[C@@H](F)C(C)(C)O)n1 [Example 845, (R)-6-(3-cyanopyrrolo[1,2-b]pyridazin-7-yl)-4-((6-ethoxypyrazin-2-yl)amino)-N-(2-fluoro-3-hydroxy-3-methylbutyl)nicotinamide] | – | – | < 0.001 | > 10 | – |
| COc1cncc(Nc2cc(-c3ccc4cc(C#N)cnn34)ncc2C(=O)NC[C@@H](F)C(C)(C)O)n1 [Example 842, (R)-6-(3-cyanopyrrolo[1,2-b]pyridazin-7-yl)-N-(2-fluoro-3-hydroxy-3-methylbutyl)-4-((6-methoxypyrazin-2-yl)amino)nicotinamide] | – | – | < 0.001 | 0.042 | – |
